Data as given in US20250195521A1 (Revolution Medicines, Inc., priority 2020, published 2025).
Where “and” joins values, the source holds several entries; their conditions need not be identical. Equal values may be shown once.

Key:
KRAS Q61H = KRAS Q61H (Homo sapiens (Human), UniProt P01116+P62937, Q61H); assay: Ras-Raf disruption/FRET/MOA assay (BRAF RBD, Cyclophilin A); format: biochemical
In short: (§1)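 TR-FRET read after 1.5 h with 10 nM anti-His Eu-W1024 and 50 nM anti-GST APC, following 3 h at 25 °C of GMPPNP-loaded His6-Ras (12.5 nM), GST-BRAF RBD (50 nM) and Cyclophilin A (25 μM) with compound from 30 μM final, 10 points, 3-fold. IC50 reported; pH 7.3 HEPES, 100 mM NaCl.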

KRAS G12V = KRAS G12V (Homo sapiens (Human), UniProt P01116+P62937, G12V); assay: as above; format: biochemical; settings: read-out: KRAS G12V FRET IC50
Sequence of KRAS G12V (P01116 other isoform, or with tags, fused parts or gaps G12V): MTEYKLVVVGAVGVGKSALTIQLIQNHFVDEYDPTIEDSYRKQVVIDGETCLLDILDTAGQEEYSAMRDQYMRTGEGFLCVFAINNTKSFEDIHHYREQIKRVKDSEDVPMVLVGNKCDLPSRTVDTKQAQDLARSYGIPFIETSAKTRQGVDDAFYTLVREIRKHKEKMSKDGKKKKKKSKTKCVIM
Sequence of KRAS G12V (P62937 whole entry): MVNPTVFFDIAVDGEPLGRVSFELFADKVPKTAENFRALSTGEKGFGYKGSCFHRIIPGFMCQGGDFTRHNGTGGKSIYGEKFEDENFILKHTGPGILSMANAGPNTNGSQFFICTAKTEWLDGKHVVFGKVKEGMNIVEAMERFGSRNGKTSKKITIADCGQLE
In short: as §1

KRAS G12C = KRAS G12C (Homo sapiens (Human), UniProt P01116+P62937, G12C); assay: as above; format: biochemical; settings: read-out: KRAS G12C FRET IC50
Sequence of KRAS G12C (P01116-2 other isoform, or with tags, fused parts or gaps G12C): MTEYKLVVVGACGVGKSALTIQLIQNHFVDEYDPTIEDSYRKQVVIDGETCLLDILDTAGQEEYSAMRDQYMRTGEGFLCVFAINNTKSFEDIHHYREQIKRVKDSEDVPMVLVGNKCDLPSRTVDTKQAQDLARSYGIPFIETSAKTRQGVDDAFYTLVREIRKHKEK
Sequence of KRAS G12C (P62937 whole entry): as the sequence (P62937 whole entry) above
In short: as §1

KRAS G13C = KRAS G13C (Homo sapiens (Human), UniProt P01116+P62937, G13C); assay: as above; format: biochemical; settings: read-out: KRAS G13C FRET IC50
Sequence of KRAS G13C (P01116 other isoform, or with tags, fused parts or gaps G13C): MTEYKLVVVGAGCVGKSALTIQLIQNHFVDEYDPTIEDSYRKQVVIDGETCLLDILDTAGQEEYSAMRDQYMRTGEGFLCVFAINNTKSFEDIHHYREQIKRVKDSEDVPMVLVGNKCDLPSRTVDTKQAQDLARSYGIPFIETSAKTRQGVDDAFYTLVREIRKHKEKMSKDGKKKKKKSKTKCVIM
Sequence of KRAS G13C (P62937 whole entry): as the sequence (P62937 whole entry) above
In short: as §1

NRAS Q61K = NRAS Q61K (Homo sapiens (Human), UniProt P01111+P62937, Q61K); assay: as above; format: biochemical
Sequence of NRAS Q61K (P01111 whole entry Q61K): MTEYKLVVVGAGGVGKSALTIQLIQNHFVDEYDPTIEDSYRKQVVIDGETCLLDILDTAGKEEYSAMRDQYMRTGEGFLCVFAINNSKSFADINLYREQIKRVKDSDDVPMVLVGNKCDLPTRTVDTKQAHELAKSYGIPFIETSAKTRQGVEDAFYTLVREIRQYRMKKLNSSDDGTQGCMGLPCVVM
Sequence of NRAS Q61K (P62937 whole entry): as the sequence (P62937 whole entry) above
In short: (§2)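 Ras-GMPPNP (12.5 nM), BRAF RBD (50 nM) and 25 μM Cyclophilin A were incubated with compound for 3 h at 25° C, then detected 1.5 h with anti-His Eu and anti-GST APC; IC50 values follow from the reduced TR-FRET ratio.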

NRAS WT = NRAS WT (Homo sapiens (Human), UniProt P01111+P62937); assay: as above; format: biochemical
Sequence of NRAS WT (P01111 whole entry): as the sequence (P01111 whole entry Q61K) above, with K61Q counted along it
Sequence of NRAS WT (P62937 whole entry): as the sequence (P62937 whole entry) above
In short: as §2

KRAS G12D = KRAS G12D (Homo sapiens (Human), UniProt P01116+P62937, G12D); assay: as above; format: biochemical; settings: read-out: KRAS G12D FRET IC50
Sequence of KRAS G12D (P01116 other isoform, or with tags, fused parts or gaps G12D): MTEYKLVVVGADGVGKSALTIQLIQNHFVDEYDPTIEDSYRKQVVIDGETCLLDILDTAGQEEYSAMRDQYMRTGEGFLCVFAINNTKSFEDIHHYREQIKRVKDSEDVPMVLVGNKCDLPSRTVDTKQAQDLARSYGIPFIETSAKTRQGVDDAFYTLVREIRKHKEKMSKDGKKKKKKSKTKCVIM
Sequence of KRAS G12D (P62937 whole entry): as the sequence (P62937 whole entry) above
In short: as §1

KRAS G13D = KRAS G13D (Homo sapiens (Human), UniProt P01116+P62937, G13D); assay: as above; format: biochemical; settings: read-out: KRAS G13D FRET data IC50
Sequence of KRAS G13D (P01116 other isoform, or with tags, fused parts or gaps G13D): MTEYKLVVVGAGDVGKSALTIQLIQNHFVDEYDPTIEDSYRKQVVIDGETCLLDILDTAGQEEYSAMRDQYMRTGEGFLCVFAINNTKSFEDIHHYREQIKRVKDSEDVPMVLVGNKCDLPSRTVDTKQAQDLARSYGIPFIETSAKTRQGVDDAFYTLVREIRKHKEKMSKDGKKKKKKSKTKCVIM
Sequence of KRAS G13D (P62937 whole entry): as the sequence (P62937 whole entry) above
In short: as §1

KRAS WT = KRAS WT (Homo sapiens (Human), UniProt P01116+P62937); assay: as above; format: biochemical; settings: read-out: KRAS WT FRET data IC50
Sequence of KRAS WT (P01116 other isoform, or with tags, fused parts or gaps): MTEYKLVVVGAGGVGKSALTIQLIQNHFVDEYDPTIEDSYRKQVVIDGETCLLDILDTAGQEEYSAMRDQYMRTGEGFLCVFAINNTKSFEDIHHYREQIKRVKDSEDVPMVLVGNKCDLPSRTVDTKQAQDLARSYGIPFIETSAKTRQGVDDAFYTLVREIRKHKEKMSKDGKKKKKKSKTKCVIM
Sequence of KRAS WT (P62937 whole entry): as the sequence (P62937 whole entry) above
In short: as §1

[1] = target: K-Ras G12C(GMP-PNP) binding to BRAF RBD (Homo sapiens (Human), UniProt P01116+P62937, G12C); assay: Disruption of BRAF RBD interaction with K-Ras (FRET / MOA assay), K-Ras G12C; format: biochemical; settings: read-out: KRAS G12C FRET IC50
Sequence of K-Ras G12C(GMP-PNP) binding to BRAF RBD (P01116 other isoform, or with tags, fused parts or gaps G12C): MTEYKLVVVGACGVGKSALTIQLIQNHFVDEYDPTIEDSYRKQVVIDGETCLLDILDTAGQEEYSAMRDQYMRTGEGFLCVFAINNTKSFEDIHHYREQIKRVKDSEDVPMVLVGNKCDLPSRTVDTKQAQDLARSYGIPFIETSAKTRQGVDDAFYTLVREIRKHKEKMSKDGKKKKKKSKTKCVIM
Sequence of K-Ras G12C(GMP-PNP) binding to BRAF RBD (P62937 whole entry): as the sequence (P62937 whole entry) above
In short: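 Compounds promote ternary complex of nucleotide-loaded Ras (here K-Ras G12C·GMP-PNP; other Ras mutants substituted) with cyclophilin A, disrupting BRAF RBD binding. 10-point 3-fold series from 30 μM final, 3 h at 25 °C, then anti-His Eu (10 nM) and anti-GST APC (50 nM) for 1.5 h. TR-FRET ratio decrease versus DMSO gave IC50.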

[2] = tested on: Capan-1 cells (K-Ras G12V); assay: CellTiter-Glo cell viability, Capan-1; format: cell-based, human; settings: Homo sapiens, CAPAN-1, 120 h, K-Ras G12V, 5-day treatment; read-out: Capan-1 Cell Viability IC50
In short: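 Endpoint: CellTiter-Glo luminescence on day 5, following ~30 min at room temperature. Data as (sample/mean DMSO)×100, four-parameter logistic fit.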

[3] = target: KRAS G12S binding to BRAF RBD (Homo sapiens (Human), UniProt P01116+P62937, G12S); assay: Ras-Raf disruption/FRET/MOA assay, KRAS G12S; format: biochemical
Sequence of KRAS G12S binding to BRAF RBD (P01116 other isoform, or with tags, fused parts or gaps G12S): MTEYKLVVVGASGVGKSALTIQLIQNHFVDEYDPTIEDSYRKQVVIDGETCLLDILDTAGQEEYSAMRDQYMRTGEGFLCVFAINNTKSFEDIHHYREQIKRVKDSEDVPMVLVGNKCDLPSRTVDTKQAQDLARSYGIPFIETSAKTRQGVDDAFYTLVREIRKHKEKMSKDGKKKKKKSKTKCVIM
Sequence of KRAS G12S binding to BRAF RBD (P62937 whole entry): as the sequence (P62937 whole entry) above
In short: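 TR-FRET ratio drop relative to DMSO wells marks disruption of the Ras–RAF complex, reported as IC50. Compounds promote a Ras(nucleotide)–cyclophilin A ternary complex that blocks BRAF RBD binding; dosing was 10 points, 3-fold, top 30 μM final, 3 h at 25° C before detection.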

NRAS Q61R = NRAS Q61R (Homo sapiens (Human), UniProt P01111+P62937, Q61R); assay: Ras-Raf disruption/FRET/MOA assay (BRAF RBD, Cyclophilin A); format: biochemical
Sequence of NRAS Q61R (P01111 whole entry Q61R): as the sequence (P01111 whole entry Q61K) above, with K61R counted along it
Sequence of NRAS Q61R (P62937 whole entry): as the sequence (P62937 whole entry) above
In short: as §2

Sequence of KRAS Q61H (P01116 other isoform, or with tags, fused parts or gaps Q61H): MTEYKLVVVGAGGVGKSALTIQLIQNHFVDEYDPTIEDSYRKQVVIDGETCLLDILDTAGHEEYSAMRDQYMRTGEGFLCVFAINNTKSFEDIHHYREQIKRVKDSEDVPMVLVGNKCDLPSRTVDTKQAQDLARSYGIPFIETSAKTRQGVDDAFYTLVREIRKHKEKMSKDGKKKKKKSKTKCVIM
Sequence of KRAS Q61H (P62937 whole entry): as the sequence (P62937 whole entry) above

SMILES | IC50 (KRAS Q61H) [nM] | IC50 (KRAS G12V) [nM] | IC50 (KRAS G12C) [nM] | IC50 (KRAS G13C) [nM] | IC50 (NRAS Q61K) [nM] | IC50 (NRAS WT) [nM] | IC50 (KRAS G12D) [nM] | IC50 (KRAS G13D) [nM] | IC50 (KRAS WT) [nM] | IC50 [1] | IC50 [2] [nM] | IC50 [3] [nM] | IC50 (NRAS Q61R) [nM]
CCn1c(-c2cccnc2[C@H](C)OC)c2c3cc(ccc31)-c1cc(O)cc(c1)C[C@H](NC(=O)C1CCC3C1C3(F)F)C(=O)N1CCC[C@H](N1)C(=O)OCC(C)(C)C2 (stereo partly drawn) [Compound A181] | 100 to 1000 | 1000 to 10000 | 1000 to 10000 | 100 to 1000 | 1000 to 10000 | 1000 to 10000 | > 10000 | 1000 to 10000 | 1000 to 10000 | 10 to 100 nM and 100 to 1000 nM | > 10000 | 10 to 100 | –
CCn1c(-c2cnccc2COC)c2c3cc(ccc31)-c1cc(O)cc(c1)C[C@H](NC(=O)[C@H](C(C)C)N(C)C(=O)N1CCNCC1)C(=O)N1CCC[C@H](N1)C(=O)OCC(C)(C)C2 [Compound A255] | – | 100 to 1000 | 10 to 100 | 10 to 100 | – | – | 100 to 1000 | 10 to 100 | 100 to 1000 | < 10 nM | > 10000 | 10 to 100 | –
CCn1c(-c2cccnc2[C@H](C)OC)c2c3cc(ccc31)-c1csc(n1)C[C@H](NC(=O)[C@H](C(C)C)N(C)C(=O)N1C[C@H]3CN(C)CC[C@H]31)C(=O)N1CCC[C@H](N1)C(=O)OCC(C)(C)C2 [Compound A462] | 100 to 1000 | 1000 to 10000 | 100 to 1000 | 100 to 1000 | 100 to 1000 | 1000 to 10000 | 1000 to 10000 | 1000 to 10000 | 1000 to 10000 | 100 to 1000 nM | 100 to 1000 | – | 1000 to 10000
CCn1c(-c2cccnc2[C@H](C)OC)c2c3cc(ccc31)-c1csc(n1)C[C@H](NC(=O)[C@H](C(C)C)N(C)C(=O)N1CC[C@H]1CN)C(=O)N1CCC[C@H](N1)C(=O)OCC(C)(C)C2 [Compound A463] | 100 to 1000 | 100 to 1000 | 100 to 1000 | 100 to 1000 | 1000 to 10000 | 100 to 1000 | 100 to 1000 | 100 to 1000 | 100 to 1000 | 10 to 100 nM | 1000 to 10000 | – | 1000 to 10000
CCn1c(-c2cccnc2[C@H](C)OC)c2c3cc(ccc31)-c1csc(n1)C[C@H](NC(=O)[C@H](C(C)C)N(C)C(=O)N1CCCC13CN(C)C3)C(=O)N1CCC[C@H](N1)C(=O)OCC(C)(C)C2 [Compound A545] | 10 to 100 | 100 to 1000 | 100 to 1000 | 100 to 1000 | 100 to 1000 | 10 to 100 | 100 to 1000 | 100 to 1000 | 10 to 100 | 10 to 100 nM | 100 to 1000 | – | 100 to 1000
CCn1c(-c2cccnc2[C@H](C)OC)c2c3cc(ccc31)-c1csc(n1)C[C@H](NC(=O)[C@H](C(C)C)N(C)C(=O)N1CC[C@@H]1CN)C(=O)N1CCC[C@H](N1)C(=O)OCC(C)(C)C2 [Compound A558] | 10 to 100 | 100 to 1000 | 10 to 100 | 100 to 1000 | 100 to 1000 | 10 to 100 | 100 to 1000 | 10 to 100 | 10 to 100 | 10 to 100 nM | 100 to 1000 | – | 100 to 1000
CCn1c(-c2cccnc2[C@H](C)OC)c2c3cc(ccc31)-c1csc(n1)C[C@H](NC(=O)[C@H](C(C)C)N(C)C(=O)N1CCN(C(=O)[C@@H]3CCCN3C)CC1)C(=O)N1CCC[C@H](N1)C(=O)OCC(C)(C)C2 [Compound A596] | 10 to 100 | 100 to 1000 | 10 to 100 | 100 to 1000 | – | 10 to 100 | 100 to 1000 | 100 to 1000 | 10 to 100 | 10 to 100 nM | 100 to 1000 | 10 to 100 | 100 to 1000
CCn1c(-c2cccnc2[C@H](C)OC)c2c3cc(ccc31)-c1csc(n1)C[C@H](NC(=O)[C@H](C(C)C)N(C)C(=O)N1CC(O)(CN(C)C)C1)C(=O)N1CCC[C@H](N1)C(=O)OCC(C)(C)C2 [Compound A597] | 100 to 1000 | 100 to 1000 | 100 to 1000 | 100 to 1000 | 100 to 1000 | 100 to 1000 | 1000 to 10000 | 100 to 1000 | 100 to 1000 | 10 to 100 nM | 100 to 1000 | – | 100 to 1000
